Source: paper PMC4038472, “Exploring the Potential of Flubendazole in Filariasis Control: Evaluation of the Systemic Exposure for Different Pharmaceutical Preparations” (PLoS Neglected Tropical Diseases, 2014)
Where two headings read alike, the source gives them in different places.

Key:
[1] = type: in vivo; details: for Time at which peak plasma concentrations were observed: range according to the experimental group and animal species (rats and jirds), FLBZ 5 mg/kg
Procedure: (§1) Jirds and rats were randomly allocated into four experimental groups (44 animals each). Experimental animals received the following treatments: FLBZ-CDoral, dosed orally (administered volume 0.25 and 1 mL for jirds and rats, respectively) in a CD-based solution (Cavasol); FLBZ-CDsc, dosed subcutaneously (sc) (injection volume of 0.25 and 1 mL for jirds and rats, respectively) in a CD-based solution (Cavitron); FLBZ-TWEEN, dosed sc (injection volume of 0.1 and 0.4 mL for jirds and rats, respectively) in a Tween-based formulation; and FLBZ-CMC, dosed orally (same volume as for FLBZ-CDoral) in a CMC-based suspension. The oral dose was administered using an intragastric tube. All treatments were given as a single dose of 5 mg/kg. The dose was selected because it is the dose previously reported in efficacy studies performed in the murine model. At defined time-points following treatment (5, 15 and 30 min, 1, 2, 3, 4, 6, 9, 12 and 16 h), blood samples were collected (n = 4 per time point) in heparinized plastic tubes. Plasma was separated by centrifugation at 2000× g for 15 min, placed into plastic tubes and frozen at −20°C until analysis by HPLC to quantify FLBZ, R-FLBZ and H-FLBZ plasma concentrations. After sc administration of the formulations, potential injection site reactions were evaluated by direct visual observation at the sampling time.
Chromatography was performed on a Shimadzu HPLC platform (Shimadzu Corporation, Kyoto, Japan), with two LC-10AS solvent pumps, an automatic sample injector (SIL-10A) with a 50 µL loop, an ultraviolet-visible spectrophotometric detector (UV) (SPD-10A) reading at 292 nm, a column oven (Eppendorf TC-45, Eppendorf, Madison, WI, USA) set at 30°C, and a CBM-10A integrator. Data and chromatograms were collected and analyzed using the Class LC10 software (SPD-10A, Shimadzu Corporation, Kyoto, Japan). The C18 reversed-phase column (5 µm, 250 mm×4.6 mm) was Kromasil (Kromasil®, Sweden). […]
Plasma samples (100 or 200 µL for jirds and rats, respectively) were spiked with OBZ as internal standard. […] Complete validation of the analytical procedures for extraction and quantification of drug and metabolites in plasma was performed before starting the analysis of experimental samples. […] The limit of quantification (FLBZ and metabolites was 0.01 µg/mL), defined as the lowest measured concentration with a CV <20%, accuracy of ±20% and absolute recovery ≥70%.
The peak concentration (Cmax) and time to peak concentration (Tmax) were read from the plotted concentration–time curve for each analyte. The area under the concentration–time curve from 0 up to the limit of quantification (AUC0-LOQ) for FLBZ and metabolites was calculated by the trapezoidal rule, using the PKSolutionTM computer program (Summit Research Services, Ashland, OR, USA). […]

[2] = mouse, in vivo; cited from earlier work
[3] = Plasma pharmacokinetics of FLBZ and metabolites after oral or sc FLBZ formulations in jirds; type: in vivo, jirds (Meriones unguiculatus)
Procedure: as §1, with “All treatments were given as a single dose of 5 mg/kg. The dose was selected because it is the dose previously reported in efficacy studies performed in the murine model. At defined time-points following treatment (5, 15 and 30 min, 1, 2, 3, 4, 6, 9, 12 and 16 h), blood samples were collected (n = 4 per time point) in heparinized plastic tubes.” left out
Chromatography was performed on a Shimadzu HPLC platform (Shimadzu Corporation, Kyoto, Japan), with two LC-10AS solvent pumps, an automatic sample injector (SIL-10A) with a 50 µL loop, an ultraviolet-visible spectrophotometric detector (UV) (SPD-10A) reading at 292 nm, a column oven (Eppendorf TC-45, Eppendorf, Madison, WI, USA) set at 30°C, and a CBM-10A integrator. […]

[4] = set-up: method as in earlier work; details: pigs after FLBZ treatment; cited from earlier work

SMILES: COC(=O)Nc1nc2cc(C(=O)c3ccc(F)cc3)ccc2[nH]1 [FLBZ, flubendazole]
- Time at which peak plasma concentrations were observed [1]: 0.7 to 3.2 h
- Increase of systemic exposure compared to the conventional FLBZ suspension [2]: more than 25 fold
- Plasma AUC, fold higher than conventional suspension [2]: 27 fold
- Plasma Cmax, fold higher than conventional suspension [2]: 28 fold

SMILES: Nc1nc2cc(C(=O)c3ccc(F)cc3)ccc2[nH]1 [H-FLBZ]
- Time at which peak plasma concentrations were observed [1]: 3.0 to 5.2 h
- H-FLBZ concentrations as share of the total amount of drug recovered in plasma ([3]; FLBZ-CD (oral or sc) or FLBZ-TWEEN, 5 mg/kg): 10–20%
- H-FLBZ as share of total drug measured in the bloodstream [4]: 97%

SMILES: COC(=O)Nc1nc2ccc(C(O)c3ccc(F)cc3)cc2[nH]1 (stereo not shown) [R-FLBZ]
- Amount of R-FLBZ metabolite present in the bloodstream ([1]; rat, in vivo): only trace amounts
- R-FLBZ AUC0-LOQ as share of the total drug recovered from plasma ([1]; rat, in vivo, 5 mg/kg): about 10%
- R-FLBZ AUC0-LOQ as share of the total drug recovered from plasma ([3]; the different groups, FLBZ 5 mg/kg): about 10%
